Source: US20230276832A1, “ULTRASONIC PREPARATION METHOD OF PROTEIN-DERIVED PEPTIDE-POLYSACCHARIDE NANOPARTICLES LOADED WITH BIOACTIVE COMPONENTS” (JIANGSU UNIVERSITY, priority 2021, published 2023)

What was measured:
[1] = Effect of light (UV 253.7 nm) on stability of quercetin (retention rate); assay type: physicochemical; conditions: after 210 min of ultraviolet light irradiation
Description: Experimental method: The freshly prepared free quercetin and quercetin-loaded composite nanoparticle dispersions were taken into transparent glass bottles in equal volume. It was then placed in a light cabinet of 0.24 m^3 and exposed to light with a wavelength of 253.7 nm, which was generated by a UV lamp with a power of 20 W. After exposure to light for 0, 30, 60, 90, 150, and 210 min, the stability of quercetin in different samples was studied, the residual quercetin content in the samples was determined, and the retention rate of quercetin (%) was calculated according to the following formula: […]

[2] = Solubility of quercetin in water; assay type: physicochemical
Description: Determination method: The quercetin concentration in the quercetin-loaded composite nanoparticle dispersion liquid was determined in the same manner as described in the examples, and calculation was done using the standard curve and dilution ratio. And the solubility of quercetin in water was calculated according to the following formula:
Solubility (μg/mL)=detected quercetin concentration×dilution factor

[3] = Effect of temperature on stability of quercetin (retention rate); assay type: physicochemical; conditions: water bath 60, 75 and 90° C. for 30 min
Description: Experimental method: The newly prepared free quercetin and quercetin-loaded composite nanoparticle dispersions were placed into glass-sealed bottles and heated in a water bath at 60, 75 and 90° C. for 30 min, respectively. It was then immediately cooled to room temperature at 25° C., and the amount of quercetin remaining in the sample was determined. The retention rate (%) of quercetin was calculated according to the following formula: […]

[4] = Release of quercetin during in vitro gastrointestinal digestion simulation; assay type: in vitro ADME; conditions: for release rate of quercetin: simulated gastric digestion
Description: Experimental method: The pH of 40 mL of freshly prepared free quercetin and quercetin composite nanoparticles dispersion was adjusted to 2.0 with 1 M HCl. After 10 min of preheating in a shaker (37° C., 100 rpm/min), 26.7 mg of pepsin was added and thoroughly mixed for 1 h to initiate simulated gastric digestion. After 1 h of digestion at 37° C., the pH of the pepsin digest was adjusted to 7.4 using 5 M NaOH. 200 mg of bile salts were added and mixed well in a shaker for 10 min. Then 13.6 mg of trypsin was added to start simulated intestinal digestion for 2 h. During the simulated gastrointestinal digestion process, 3 mL of digestion samples were collected at different digestion time (0, 30, 60, 90, 120, 150 and 180 min), and the enzyme was immediately inactivated with liquid nitrogen to terminate the reaction. The content of quercetin was determined, and the release rate (%) of quercetin was calculated according to the following formula: […]

[5] = DPPH free radical scavenging method; assay type: biochemical; conditions: 100 μM DPPH, 30 min in dark
Description: A 100 μM solution of DPPH (as-is) was prepared in dark using absolute ethanol. A volume of 2 mL DPPH solution was taken out and mixed well with 2 mL of sample solution, and allowed to react in dark at room temperature for 30 min. The absorbance at 517 nm of the mixture was measured using a UV-visible spectrophotometer. Distilled water and absolute ethanol were served as blank controls instead of samples. The formula for calculating the DPPH free radical scavenging rate of the sample was as follows:
Wherein, A0 represents blank; A1 is the sample with ethanol; A2 is the sample with DPPH solution.

O=c1c(O)c(-c2ccc(O)c(O)c2)oc2cc(O)cc(O)c12 [quercetin]
retention rate of quercetin [1]: 60.08%
solubility of quercetin in water [2]: 7.05 µg/mL
thermal stability of quercetin [3]: poor thermal stability
quercetin released in the digestive juice ([4]; after subsequent simulated intestinal digestion): 90.09%
release rate of quercetin ([4]; 60 min): 64.06%
release rate of quercetin ([4]; first 30 min): 42.36%
DPPH free radical scavenging rate [5]: 94.52%
